Results from patent US20230391779A1, “BICYCLIC COMPOUNDS, COMPOSITIONS AND USE THEREOF” (Betta Pharmaceuticals Co., Ltd., priority 2020, published 2023).
pEC50: −log10 of the molar value.

Experiments:
[1] = Pharmacokinetics in plasma following PO cassette dosing in mice; format: in vivo; details: mouse, Balb/C female mice, 5 mg/kg; for AUC: blood collection 30 min, 2 h, 4 h
Procedure: Adult Balb/C female mice (6-7 weeks, Vitalriver) were received to cassette dosing of the test compounds with 10-20% DMSO, 10% Solutol (Kolliphor HS 15, Beijing Fengli Jingqiu Pharmaceutical Co., Ltd.) and 80-70% H2O as excipients. The mice (n=3) were giving oral administration (intragastric administration) at a dose of 5 mg/kg. Time of blood collection: 30 min, 2 h, 4 h. About 0.1 mL of whole blood was collected from retro-orbital venous plexus, and placed into tubes that contained EDTA as an anticoagulant. The samples were centrifuged at 4° C. and 4000 rpm for 10 min. The plasma was transferred into centrifuge tubes, and stored at −20° C. before being analyzed. Concentrations of test compounds in the plasma samples were analyzed with liquid chromatography-tandem mass spectrometry (LC-MS/MS). Plasma concentration-time data of individual animals was analyzed using Microsoft Excel 2010. Non-compartmental model was introduced in concentration analysis. The pharmacokinetic parameters of the test compounds were calculated using WinNonlin (version 4.1; Pharsight) software.

TEAD-YAP/TAZ interaction = test: CTGF ELISA assay; format: cell-based, human; details: CTGF in culture supernatant of NCI-H2052 cells, 24 hours with compound
Summary of the method: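 NCI-H2052 cells treated 24 h at 37 °C with compound (10000–0.61 nM, 0.5% DMSO); secreted CTGF in supernatant measured by sandwich ELISA (OD 450 nm) against a standard curve. EC50 fitted from CTGF concentration-response curves.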

Row | Compound | Cmax [1] | AUC [1] | pEC50 (TEAD-YAP/TAZ interaction)
1 | C=C(F)C(=O)NC1CN(c2nc(-c3ccc(C(F)(F)F)cc3)nc3ccccc23)C1 [compound 269, 2-fluoro-N-(1-(2-(4-(trifluoromethyl)phenyl)quinazolin-4-yl)azetidin-3-yl)acrylamide] | 1250 ng/mL | 4370 ng·h/mL | 
2 | C=CC(=O)NC1CN(c2nc(-c3ccc(C(F)(F)F)cc3)nc3cccnc23)C1 [compound 281, N-(1-(2-(4-(trifluoromethyl)phenyl)pyrido[3,2-d]pyrimidin-4-yl)azetidin-3-yl)acrylamide] | 1190 ng/mL | 4200 ng·h/mL | 
3 | C=C(F)C(=O)N1CC(n2nc(C#Cc3ccccc3)c3cccnc32)C1 [compound 307] | 2710 ng/mL | 8480 ng·h/mL | 
4 | C=C(F)C(=O)N1CC(n2nc(/C=C/C3CCCCC3)c3cccnc32)C1 [compound 331, (E)-1-(3-(3-(2-cyclohexylvinyl)-1H-pyrazolo[3,4-b]pyridin-1-yl)azetidin-1-yl)-2-fluoroprop-2-en-1-one] | 1760 ng/mL | 5730 ng·h/mL | 
5 | C=C(F)C(=O)N1CC(n2nc(-c3ccc(C(F)(F)F)cc3F)c3ncccc32)C1 [Compound 130, 2-fluoro-1-(3-(3-(2-fluoro-4-(trifluoromethyl)phenyl)-1H-pyrazolo[4,3-b]pyridin-1-yl)-azetidin-1-yl)prop-2-en-1-one] | 1960 ng/mL | 7110 ng·h/mL | 8.40
6 | C=C(F)C(=O)N1CC(n2nc(/C=C/c3ccccc3)c3cccnc32)C1 [compound 308] | 2610 ng/mL | 9110 ng·h/mL | 
7 | C=C(F)C(=O)N1CC(n2c(=O)n(-c3ccc(C(F)(F)F)nc3)c3ccc(C)nc32)C1 [Compound 243, 3-(1-(2-fluoroacryloyl)azetidin-3-yl)-5-methyl-1-(6-(trifluoromethyl)pyridin-3-yl)-1,3-dihydro-2H-imidazo[4,5-b]pyridin-2-one] | 1210 ng/mL | 4010 ng·h/mL | 7.55
8 | C=C(F)C(=O)N1CC(n2nc(-c3ccc(C(F)(F)F)cc3F)c3cccnc32)C1 [Compound 128, 2-fluoro-1-(3-(3-(2-fluoro-4-(trifluoromethyl)phenyl)-1H-pyrazolo[3,4-b]pyridin-1-yl)-azetidin-1-yl)prop-2-en-1-one] | 5270 ng/mL | 19300 ng·h/mL | 8.05
9 | C=C(F)C(=O)N1CC(n2c(=O)n(-c3ccc(C(F)(F)F)cc3)c3nccnc32)C1 [Compound 240, 1-(1-(2-fluoroacryloyl)azetidin-3-yl)-3-(4-(trifluoromethyl)phenyl)-1,3-dihydro-2H-imidazo[4,5-b]pyrazin-2-one] | 1600 ng/mL | 5880 ng·h/mL | 8.89
10 | C=C(F)C(=O)N1CC(n2nc(-c3cnc(C(F)(F)F)nc3)c3cccnc32)C1 [Compound 183, 2-fluoro-1-(3-(3-(2-(trifluorometh-yl)pyrimidin-5-yl)-1H-pyrazolo-[3,4-b]pyridin-1-yl)azetidin-1-yl)-prop-2-en-1-one] | 3680 ng/mL | 12800 ng·h/mL | 
11 | C=C(F)C(=O)N1CC(n2nc(-c3ccc(S(F)(F)(F)(F)F)cc3)c3cccnc32)C1 [Compound 173, 2-fluoro-1-(3-(3-(4-(pentafluoro-16-sulfanyl)phenyl)-1H-pyrazolo-[3,4-b]pyridin-1-yl)azetidin-1-yl)prop-2-en-1-one] | 1670 ng/mL | 5960 ng·h/mL | 7.32
12 | C=C(F)C(=O)N1CC(n2nc(C#CC3CCCC3)c3cccnc32)C1 [compound 312, 1-(3-(3-(cyclopentylethynyl)-1H-pyrazolo[3,4-b]pyridin-1-yl)azetidin-1-yl)-2-fluoroprop-2-en-1-one] | 2080 ng/mL | 5790 ng·h/mL | 
13 | C=C(F)C(=O)N1CC(n2nc(-c3ccc(C(F)(F)F)nc3C)c3cccnc32)C1 [Compound 182, 2-fluoro-1-(3-(3-(2-methyl-6-(trifluoromethyl)pyridin-3-yl)-1H-pyrazolo[3,4-b]pyridin-1-yl)azetidin-1-yl)prop-2-en-1-one] | 2160 ng/mL | 7410 ng·h/mL | 9.41
14 | C=C(F)C(=O)N1CC(n2c(=O)n(-c3ccc(C(F)(F)F)nc3)c3nccnc32)C1 [Compound 241, 1-(1-(2-fluoroacryloyl)azetidin-3-yl)-3-(6-(trifluoromethyl)pyridin-3-yl)-1,3-dihydro-2H-imidazo[4,5-b]pyrazin-2-one] | 2530 ng/mL | 8260 ng·h/mL | 
15 | C=C(F)C(=O)N1CC(n2c(=O)n(-c3ccc(C(F)(F)F)cc3)c3ccccc32)C1 [Compound 229, 1-(1-(2 fluoroacryloyl)azetidin-3 yl)-3-(4-(trifluoromethyl)phenyl)-1,3-dihydro-2H-benzo[d]imidazol-2-one] | 1040 ng/mL | 3840 ng·h/mL | 7.70

Now from value to compound:

Row | Cmax [1] | AUC [1] | pEC50 (TEAD-YAP/TAZ interaction) | Compound
16 | 1770 ng/mL | 5410 ng·h/mL | 8.00 | C=C(F)C(=O)N1CC(n2c(=O)n(-c3ccc(C(F)(F)F)cc3)c3ccc(C)nc32)C1 [Compound 242, 3-(1-(2-fluoroacryloyl)azetidin-3-yl)-5-methyl-1-(4-(trifluoromethyl)phenyl)-1,3-dihydro-2H-imidazo[4,5-b]pyridin-2-one]
17 | 1520 ng/mL | 5060 ng·h/mL | 7.85 | C=CC(=O)N1CCC(n2nc(-c3ccc(C(F)(F)F)nc3)c3cccc(C(=O)NC4CC(F)(F)C4)c32)C1 (stereo not drawn) [Compound 104, 1-(1-acryloylpyrrolidin-3-yl)-N-(3,3-difluorocyclobutyl)-3-(6-(trifluoromethyl)pyridin-3-yl)-1H-indazole-7-carboxamide]
18 | 1420 ng/mL | 4640 ng·h/mL | 8.44 | C=CC(=O)N1CCC(n2nc(-c3ccc(C(F)(F)F)cc3)c3ncccc32)C1 (stereo not drawn) [Compound 26, 1-(3-(3-(4-(trifluoromethyl)phen-yl)-1H-pyrazolo[4,3-b]pyridin-1-yl)pyrrolidin-1-yl)prop-2-en-1-one]
19 | 1190 ng/mL | 3780 ng·h/mL | 9.15 | C=C(F)C(=O)N1CC(n2nc(-c3ccc(C(F)(F)F)cc3)c3ncn(CC)c(=O)c32)C1 [Compound 218, 6-ethyl-1-(1-(2-fluoroacryloyl)-azetidin-3-yl)-3-(4-(trifluoro-methyl)phenyl)-1,6-dihydro-7H-pyrazolo[4,3-d]pyrimidin-7-one]
20 | 1970 ng/mL | 6480 ng·h/mL | 7.92 | C=CC(=O)N1CCC(n2nc(-c3ccc(C(F)(F)F)cc3)c3nc(OC)ccc32)C1 (stereo not drawn) [Compound 89, 1-(3-(5-methoxy-3-(4-(trifluoro-methyl)phenyl)-1H-pyrazolo[4,3-b]pyridin-1-yl)pyrrolidin-1-yl)-prop-2-en-1-one]
21 | 1690 ng/mL | 6100 ng·h/mL |  | C=CC(=O)NC1CN(c2nc(-c3ccc(C(F)(F)F)cc3)nc3ccccc23)C1 [compound 268, N-(1-(2-(4-(trifluoromethyl)phenyl)quinazolin-4-yl)azetidin-3-yl)acrylamide]
22 | 1580 ng/mL | 4470 ng·h/mL | 7.77 | C=CC(=O)N1CCC(n2nc(-c3ccc(C(F)(F)F)cn3)c3ccccc32)C1 (stereo not drawn) [Compound 58, 1-(3-(3-(5-(trifluoromethyl)pyr-idin-2-yl)-1H-indazol-1-yl)pyrrol-idin-1-yl)prop-2-en-1-one]
23 | 1650 ng/mL | 1650 ng·h/mL | 9.40 | C=C(F)C(=O)N1CC(n2nc(-c3ccc(OC(F)(F)F)cc3)c3cccnc32)C1 [Compound 172, 2-fluoro-1-(3-(3-(4-(trifluoro-methoxy)phenyl)-1H-pyrazolo-[3,4-b]pyridin-1-yl)azetidin-1-yl)prop-2-en-1-one]
24 | 1060 ng/mL | 3150 ng·h/mL | 7.96 | C=CC(=O)N1CCC(n2nc(-c3ccc(C(F)(F)F)cc3)c3cccnc32)C1 (stereo not drawn) [Compound 21, 1-(3-(3-(4-(trifluoromethyl)phen-yl)-1H-pyrazolo[3,4-b]pyridin-1-yl)pyrrolidin-1-yl)prop-2-en-1-one]
25 | 721 ng/mL | 2510 ng·h/mL | 7.82 | C=CC(=O)N1CCC(n2nc(-c3ccc(C(F)(F)F)cc3)c3ccc(C)cc32)C1 (stereo not drawn) [Compound 47, 1-(3-(6-methyl-3-(4-(trifluoro-methyl)phenyl)-1H-indazol-1-yl)-pyrrolidin-1-yl)prop-2-en-1-one]
26 | 1200 ng/mL | 3500 ng·h/mL | 7.92 | C=CC(=O)N1CCC(n2nc(-c3ccc(C(F)(F)F)cc3)c3cc(Cl)cnc32)C1 (stereo not drawn) [Compound 108, 1-(3-(5-chloro-3-(4-(trifluoro-methyl)phenyl)-1H-pyrazolo[3,4-b]pyridin-1-yl)pyrrolidin-1-yl)-prop-2-en-1-one]
